Source: ChEMBL document CHEMBL1201862, “PubChem BioAssay data set” (2004)
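Five concentrations, 48 hours, 96-well plates. The concentration for 50% growth inhibition is given as GI50.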 The source made the active and inactive calls. No stated cut-off is given here; in the data, active = GI50 up to about 1.1 µM and inactive = higher.

What was measured:
Test in all cases: DTP human tumour cell line panel, 48 h
A549 = test system: A549
SNB-75 = test system: SNB-75
OVCAR-5 = test system: OVCAR-5
HL-60 = test system: HL-60
SK-MEL-2 = test system: SK-MEL-2
RPMI-8226 = test system: RPMI-8226
DU-145 = test system: DU-145
SF-539 = test system: SF-539
RXF 393 = test system: RXF 393
MDA-MB-435 = test system: MDA-MB-435
EKVX = test system: EKVX
Malme-3M = test system: Malme-3M
OVCAR-4 = test system: OVCAR-4
NCI/ADR-RES = test system: NCI/ADR-RES
HOP-92 = test system: HOP-92
HCT-15 = test system: HCT-15
SK-MEL-5 = test system: SK-MEL-5
CAKI-1 = test system: CAKI-1
A498 = test system: A498
NCI-H522 = test system: NCI-H522

Structure (SMILES)	GI50 (A549)	GI50 (SNB-75)	GI50 (OVCAR-5)	GI50 (HL-60)	GI50 (SK-MEL-2)	GI50 (RPMI-8226)	GI50 (DU-145)	GI50 (SF-539)	GI50 (RXF 393)	GI50 (MDA-MB-435)	GI50 (EKVX)	GI50 (Malme-3M)	GI50 (OVCAR-4)	GI50 (NCI/ADR-RES)	GI50 (HOP-92)	GI50 (HCT-15) [µM]	GI50 (SK-MEL-5)	GI50 (CAKI-1)	GI50 (A498)	GI50 (NCI-H522)
Clc1ccc(-c2ccc(-c3nn4c(CNc5ccccc5)nnc4s3)o2)c(Cl)c1	72.3 µM (inactive)	50.7 µM (inactive)	> 100 µM (inactive)	44.3 µM (inactive)	90.4 µM (inactive)	36.6 µM (inactive)	> 100 µM (inactive)	22.5 µM (inactive)	33.5 µM (inactive)	58.1 µM (inactive)	41.5 µM (inactive)	> 100 µM (inactive)	> 100 µM (inactive)	81.7 µM (inactive)	29.2 µM (inactive)	48.1	33.4 µM (inactive)	> 100 µM (inactive)	> 100 µM (inactive)	57.8 µM (inactive)
N#CCN(Cc1ccccc1)[C@H]1CCC[C@]1(O)/C=C/c1ccc2c(c1)OCO2	38.4 µM (inactive)	28.4 µM (inactive)	39.3 µM (inactive)	16.2 µM (inactive)	20 µM (inactive)	19.8 µM (inactive)	62.1 µM (inactive)	41.1 µM (inactive)	23.6 µM (inactive)	20 µM (inactive)	76.9 µM (inactive)	17.6 µM (inactive)	29 µM (inactive)	19.3 µM (inactive)	18.2 µM (inactive)	22.2	16.5 µM (inactive)	36.1 µM (inactive)	37.2 µM (inactive)	17 µM (inactive)
O=C1CSC(c2cc3cc(Br)ccc3nc2Cl)N1c1ccc(Cl)cc1 (stereo not given)	28.1 µM (inactive)	52.2 µM (inactive)	94.8 µM (inactive)	20.7 µM (inactive)	14.7 µM (inactive)	25.4 µM (inactive)	34.4 µM (inactive)	17.7 µM (inactive)	20.8 µM (inactive)	16.8 µM (inactive)	27.2 µM (inactive)	25.7 µM (inactive)	23.2 µM (inactive)	20.5 µM (inactive)	37.2 µM (inactive)	16.8	14 µM (inactive)	18.5 µM (inactive)	36 µM (inactive)	17.8 µM (inactive)
O=C(O)C1CC(c2ccccc2)=NN1c1ccccc1 (stereo not given)	70 µM (inactive)	> 100 µM (inactive)	> 100 µM (inactive)	89.7 µM (inactive)	69.5 µM (inactive)	40.3 µM (inactive)	96.8 µM (inactive)	93.5 µM (inactive)	87.1 µM (inactive)	63.4 µM (inactive)	24 µM (inactive)	32.5 µM (inactive)	67.6 µM (inactive)	48.5 µM (inactive)	69.3 µM (inactive)	34	34.4 µM (inactive)	43.6 µM (inactive)	51.4 µM (inactive)	27.4 µM (inactive)
